Active and inactive are the calls of the source. The rule behind the calls is not given here.

Data set [1] concerns PC-3. The experiment in a line: Antiproliferation activity against human PC3 cells assessed as cell proliferation at 10 uM by MTS assay. The data set is classed as functional. The note with it: read-out: Activity.
Data set [2] concerns PC-3. Nature of the data set: Antiproliferation activity against human PC3 cells assessed as cell proliferation at 50 uM by MTS assay. The data set is classed as functional. The note with it: read-out: Activity.
Data set [3] has as its system PC-3. The experiment in a line: Antiproliferation activity against human PC3 cells assessed as cell proliferation at 20 uM by MTS assay. The format is functional. As to conditions: read-out: Activity.
Data set [4] concerns the target Phosphatidylinositol 4-phosphate 5-kinase type-1 alpha (Homo sapiens) (UniProt Q99755). The experiment in a line: Binding affinity to human PIP5K1alpha.
Data set [5] has as its system PC-3. The experiment in a line: Antitumor activity against human PC3 cells xenografted in mouse assessed as reduction in volume at 40 mg/kg co-treated with 10 mg/kg docetaxel dosed every second day starting from day 0 and ending on day 20 (reference value: 500 mm3). The data set is classed as functional.
Data set [6] can be described thus: Toxicity in mouse xenografted with human PC3 cells assessed as induction of body weight loss at 40 mg/kg dosed every second day starting from day 0 and ending on day 20. The format is organism-based. The note with it: in vivo.
Data set [7] relates to LNCaP. Nature of the data set: Inhibition of PIP5K1alpha protein expression in human LNCAP cells assessed as reduction in AKT phosphorylation at Ser473 residues at 20 uM incubated for 48 hrs by immunoblot analysis relative to control. The format is functional.
For data set [8], the system named is LNCaP. The experiment in a line: Effect on CREB phosphorylation in human LNCAP cells at 20 uM incubated for 48 hrs by immunoblot analysis. The format is functional, cell-based.
Data set [9] concerns LNCaP. Nature of the data set: Increase in p27 protein expression in human LNCAP cells at 20 uM incubated for 48 hrs by immunoblot analysis. The format is functional, cell-based.
Data set [10] concerns PC-3. Nature of the data set: Inhibition of PIP5K1alpha protein expression in human PC3 cells assessed as reduction in cyclin E1 expression at 50 uM incubated for 48 hrs by immunoblot analysis relative to control. The format is functional, cell-based.
In data set [11] the test system is PC-3. Nature of the data set: Inhibition of PIP5K1alpha protein expression in human PC3 cells assessed as reduction in CDK1 expression at 50 uM incubated for 48 hrs by immunoblot analysis relative to control. The data set is classed as functional, cell-based.
In data set [12] the test system is PC-3. Nature of the data set: Inhibition of PIP5K1alpha protein expression in human PC3 cells assessed as reduction in CDK1 phosphorylation at 50 uM incubated for 48 hrs by immunoblot analysis relative to control. The data set is classed as functional, cell-based.
Data set [13] deals with PC-3. The experiment in a line: Inhibition of PIP5K1alpha protein expression in human PC3 cells assessed as reduction in cyclin B1 expression at 50 uM incubated for 48 hrs by immunoblot analysis relative to control. The data set is classed as functional, cell-based.
Data set [14] concerns PC-3. The experiment in a line: Induction of cell cycle arrest in human PC3 cells assessed as change in accumulation at G2/M phase at 50 uM incubated for 48 hrs by flow cytometry relative to control. The format is functional.
Data set [15] deals with PC-3. Nature of the data set: Inhibition of cell invasion in human PC3 cells assessed as cell invasion relative to control. The data set is classed as functional. Further details: scale not given: the % may be the effect or the level left.
The next data set relates to HCT-116. The experiment in a line: Inhibition of cell proliferation in human HCT116 cells assessed as reduction in viable cell count at 10 to 100 uM incubated for 48 hrs. The data set is classed as functional, cell-based.
The subject of the next data set is MDA-MB-231. Nature of the data set: Inhibition of cell proliferation in human MDA-MB-231 cells assessed as reduction in viable cell count at 10 to 100 uM incubated for 48 hrs. The data set is classed as functional, cell-based.

Phosphatidylinositol 4-phosphate 5-kinase type-1 alpha (Homo sapiens), sequence (Q99755 whole entry): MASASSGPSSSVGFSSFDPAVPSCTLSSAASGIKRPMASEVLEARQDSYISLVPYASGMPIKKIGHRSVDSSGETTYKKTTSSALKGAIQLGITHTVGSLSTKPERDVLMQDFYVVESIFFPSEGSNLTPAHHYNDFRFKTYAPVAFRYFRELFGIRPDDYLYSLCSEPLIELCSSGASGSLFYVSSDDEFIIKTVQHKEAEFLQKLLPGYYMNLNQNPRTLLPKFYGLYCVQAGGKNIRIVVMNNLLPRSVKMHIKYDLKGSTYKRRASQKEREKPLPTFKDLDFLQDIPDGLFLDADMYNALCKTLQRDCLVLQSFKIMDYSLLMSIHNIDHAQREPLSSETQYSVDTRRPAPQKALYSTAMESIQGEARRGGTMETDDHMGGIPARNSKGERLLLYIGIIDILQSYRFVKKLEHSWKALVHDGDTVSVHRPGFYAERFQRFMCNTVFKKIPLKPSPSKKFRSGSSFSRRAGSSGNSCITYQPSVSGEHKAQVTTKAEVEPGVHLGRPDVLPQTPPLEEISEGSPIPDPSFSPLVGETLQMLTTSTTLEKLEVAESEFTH

As for `CN1CC(=O)N2[C@H](c3c[nH]c4ccc(Cl)cc34)c3cc4c(cc3C[C@H]2C1=O)OCO4`, the growth at 10 µM with PC-3 [1] turned out to be 58.8%. Also, the growth at 50 µM in the data set on PC-3 [2] worked out at 21.6%. Also, in the data set on PC-3 [3], the growth at 20 µM came out at 48.6%. In addition, the result (in data set [4]; in the data set with LNCaP [9]) was Active. For the same molecule, the Activity in the data set on PC-3 [5] is 36 mm3; in [6], “Non-Toxic”; in the data set with PC-3 [14], 4.96%; in the data set on PC-3 [15] it was 55.96%. Further, the inhibition at 20 µM in the data set on LNCaP [7] is 75.5%. For the same molecule, in the data set with LNCaP [8], the result was inactive. The inhibition entry with PC-3 [10], with PC-3 [11], in the data set on PC-3 [12], with PC-3 [13], with HCT-116 and in the data set with MDA-MB-231 was “Active” throughout.

For the origin of these results see ChEMBL document CHEMBL4419175, “Compositions for treatment, diagnosis and prognosis of diseases” (2016).
